Activity calls are given as the source filed them.
Columns and labels:
Streptokinase A = target: T1, Streptokinase A (Streptococcus pyogenes serotype M1, UniProt P10520); assay: S. pyogenes streptokinase expression inhibitors, potency, dose response, plasminogen activation absorbance, OD405 (AID 1914); format: functional, Streptococcus pyogenes M1 GAS;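 note: secreted streptokinase activity via plasminogen activation per viability signal from cell pellet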
T1 sequence (P10520 whole entry): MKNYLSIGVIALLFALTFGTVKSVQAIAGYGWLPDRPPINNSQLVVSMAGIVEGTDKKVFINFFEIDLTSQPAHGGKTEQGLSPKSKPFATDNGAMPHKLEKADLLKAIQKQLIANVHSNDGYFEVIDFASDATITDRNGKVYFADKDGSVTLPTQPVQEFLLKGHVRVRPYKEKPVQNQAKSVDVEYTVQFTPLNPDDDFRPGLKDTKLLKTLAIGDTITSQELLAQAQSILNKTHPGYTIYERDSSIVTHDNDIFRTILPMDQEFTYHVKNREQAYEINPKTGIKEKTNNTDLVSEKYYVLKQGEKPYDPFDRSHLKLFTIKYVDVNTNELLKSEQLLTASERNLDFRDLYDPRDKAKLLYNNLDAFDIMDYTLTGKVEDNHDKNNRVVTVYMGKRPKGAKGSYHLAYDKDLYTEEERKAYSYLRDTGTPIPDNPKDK

[1] = target: T2, Sentrin-specific protease 6 (Homo sapiens, UniProt Q9GZR1); format: functional;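 note: Luminescence-based dose-response confirmatory assay of SENP6 inhibition, following up an ultra-high-throughput screen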
T2 sequence (Q9GZR1 whole entry): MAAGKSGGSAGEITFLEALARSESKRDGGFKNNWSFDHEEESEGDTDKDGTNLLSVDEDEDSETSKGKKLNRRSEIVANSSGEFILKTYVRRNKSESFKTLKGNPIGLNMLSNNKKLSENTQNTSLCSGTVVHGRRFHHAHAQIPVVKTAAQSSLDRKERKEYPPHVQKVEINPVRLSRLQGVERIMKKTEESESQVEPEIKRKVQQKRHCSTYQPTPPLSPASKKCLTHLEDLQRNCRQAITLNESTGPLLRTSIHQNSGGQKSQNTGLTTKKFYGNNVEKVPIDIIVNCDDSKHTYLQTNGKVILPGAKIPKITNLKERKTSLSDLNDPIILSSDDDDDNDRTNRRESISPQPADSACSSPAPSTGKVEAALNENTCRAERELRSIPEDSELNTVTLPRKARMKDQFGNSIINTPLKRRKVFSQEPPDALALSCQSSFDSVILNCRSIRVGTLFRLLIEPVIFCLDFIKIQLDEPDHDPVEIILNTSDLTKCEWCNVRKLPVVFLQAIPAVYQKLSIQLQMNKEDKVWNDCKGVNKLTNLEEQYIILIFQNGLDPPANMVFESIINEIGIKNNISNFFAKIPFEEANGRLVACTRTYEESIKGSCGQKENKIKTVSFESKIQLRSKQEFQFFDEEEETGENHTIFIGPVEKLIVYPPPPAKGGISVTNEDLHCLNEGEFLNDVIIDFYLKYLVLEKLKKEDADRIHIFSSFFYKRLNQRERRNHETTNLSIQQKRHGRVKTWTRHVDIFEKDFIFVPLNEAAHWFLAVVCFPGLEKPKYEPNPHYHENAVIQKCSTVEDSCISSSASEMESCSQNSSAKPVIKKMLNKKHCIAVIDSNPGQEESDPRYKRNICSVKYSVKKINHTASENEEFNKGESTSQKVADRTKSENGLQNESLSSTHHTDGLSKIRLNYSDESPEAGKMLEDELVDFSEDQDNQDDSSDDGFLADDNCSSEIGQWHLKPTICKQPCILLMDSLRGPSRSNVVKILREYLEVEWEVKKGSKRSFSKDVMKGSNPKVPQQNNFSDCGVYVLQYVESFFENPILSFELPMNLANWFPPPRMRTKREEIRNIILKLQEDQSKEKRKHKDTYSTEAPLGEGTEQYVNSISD

[2] = target: Inhibitor of nuclear factor kappa-B kinase subunit epsilon (Homo sapiens, UniProt Q14164); assay: Navigating the Kinome. Panel member name: IKBKE; format: functional
[3] = target: Cyclin-dependent kinase 8 (Homo sapiens, UniProt P49336); assay: Navigating the Kinome. Panel member name: CDK8; format: functional
Cyclin-dependent kinase 8, sequence (P49336 whole entry): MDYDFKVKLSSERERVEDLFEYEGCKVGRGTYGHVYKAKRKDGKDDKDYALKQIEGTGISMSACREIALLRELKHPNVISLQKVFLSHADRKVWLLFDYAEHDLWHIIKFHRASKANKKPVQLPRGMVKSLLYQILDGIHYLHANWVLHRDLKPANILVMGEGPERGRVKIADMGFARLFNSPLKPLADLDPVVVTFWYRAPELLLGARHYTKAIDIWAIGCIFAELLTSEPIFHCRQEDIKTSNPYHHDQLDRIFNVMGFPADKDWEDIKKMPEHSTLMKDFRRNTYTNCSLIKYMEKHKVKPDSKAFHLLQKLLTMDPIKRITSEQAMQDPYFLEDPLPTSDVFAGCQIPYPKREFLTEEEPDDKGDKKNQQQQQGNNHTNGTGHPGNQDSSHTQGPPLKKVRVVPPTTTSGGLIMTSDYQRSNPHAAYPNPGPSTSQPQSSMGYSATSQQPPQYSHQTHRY

[4] = target: Fibroblast growth factor receptor 1 (Homo sapiens, UniProt P11362); format: functional
Fibroblast growth factor receptor 1, sequence (P11362 whole entry): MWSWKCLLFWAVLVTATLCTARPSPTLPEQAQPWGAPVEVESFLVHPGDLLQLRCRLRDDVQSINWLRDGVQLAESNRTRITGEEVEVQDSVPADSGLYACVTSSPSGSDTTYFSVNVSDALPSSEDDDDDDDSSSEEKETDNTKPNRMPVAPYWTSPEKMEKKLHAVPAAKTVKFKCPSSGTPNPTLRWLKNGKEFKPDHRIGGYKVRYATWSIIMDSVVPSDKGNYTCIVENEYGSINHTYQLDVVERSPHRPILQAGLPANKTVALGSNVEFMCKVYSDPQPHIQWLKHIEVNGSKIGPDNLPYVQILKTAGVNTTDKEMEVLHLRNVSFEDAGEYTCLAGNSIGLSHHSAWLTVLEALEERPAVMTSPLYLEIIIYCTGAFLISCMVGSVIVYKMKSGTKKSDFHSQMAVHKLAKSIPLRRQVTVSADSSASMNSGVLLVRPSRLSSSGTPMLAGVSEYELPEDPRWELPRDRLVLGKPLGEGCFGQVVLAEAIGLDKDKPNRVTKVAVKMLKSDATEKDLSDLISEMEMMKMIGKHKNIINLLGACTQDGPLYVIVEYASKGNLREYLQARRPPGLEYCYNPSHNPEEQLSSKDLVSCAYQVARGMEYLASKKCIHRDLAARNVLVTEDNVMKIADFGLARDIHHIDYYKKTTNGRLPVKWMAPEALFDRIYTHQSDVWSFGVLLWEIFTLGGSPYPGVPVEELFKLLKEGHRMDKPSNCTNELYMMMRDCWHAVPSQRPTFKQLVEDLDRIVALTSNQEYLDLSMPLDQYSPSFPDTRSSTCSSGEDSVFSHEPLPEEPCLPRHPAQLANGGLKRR

[5] = target: Serine/threonine-protein kinase pim-1 (Homo sapiens, UniProt P11309); format: functional
Serine/threonine-protein kinase pim-1, sequence (P11309 whole entry): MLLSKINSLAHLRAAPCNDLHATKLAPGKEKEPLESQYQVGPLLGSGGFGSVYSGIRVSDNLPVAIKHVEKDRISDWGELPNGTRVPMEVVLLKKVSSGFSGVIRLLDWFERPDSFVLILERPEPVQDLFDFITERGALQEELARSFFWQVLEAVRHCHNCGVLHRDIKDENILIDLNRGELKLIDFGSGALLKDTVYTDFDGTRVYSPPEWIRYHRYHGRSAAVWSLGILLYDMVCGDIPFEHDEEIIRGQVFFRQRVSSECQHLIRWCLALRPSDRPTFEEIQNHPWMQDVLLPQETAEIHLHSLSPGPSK

[6] = target: Tyrosine-protein kinase Fyn (Homo sapiens, UniProt P06241); format: functional
Tyrosine-protein kinase Fyn, sequence (P06241 whole entry): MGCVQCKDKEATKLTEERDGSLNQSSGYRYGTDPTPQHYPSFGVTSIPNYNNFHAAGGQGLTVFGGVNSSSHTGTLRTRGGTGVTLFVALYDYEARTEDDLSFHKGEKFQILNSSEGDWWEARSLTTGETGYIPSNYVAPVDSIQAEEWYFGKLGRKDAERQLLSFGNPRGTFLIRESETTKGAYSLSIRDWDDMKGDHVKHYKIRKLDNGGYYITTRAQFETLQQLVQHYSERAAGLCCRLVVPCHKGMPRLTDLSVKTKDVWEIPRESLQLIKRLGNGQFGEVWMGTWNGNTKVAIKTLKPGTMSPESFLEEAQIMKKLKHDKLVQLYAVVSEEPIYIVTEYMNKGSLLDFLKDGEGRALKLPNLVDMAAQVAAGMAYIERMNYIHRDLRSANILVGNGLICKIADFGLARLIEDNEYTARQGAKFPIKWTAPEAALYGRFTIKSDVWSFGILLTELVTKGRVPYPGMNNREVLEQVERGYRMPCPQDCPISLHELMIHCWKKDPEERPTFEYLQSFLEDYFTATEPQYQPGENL

[7] = target: Tyrosine-protein kinase JAK3 (Homo sapiens, UniProt P52333); format: functional
Tyrosine-protein kinase JAK3, sequence (P52333 whole entry): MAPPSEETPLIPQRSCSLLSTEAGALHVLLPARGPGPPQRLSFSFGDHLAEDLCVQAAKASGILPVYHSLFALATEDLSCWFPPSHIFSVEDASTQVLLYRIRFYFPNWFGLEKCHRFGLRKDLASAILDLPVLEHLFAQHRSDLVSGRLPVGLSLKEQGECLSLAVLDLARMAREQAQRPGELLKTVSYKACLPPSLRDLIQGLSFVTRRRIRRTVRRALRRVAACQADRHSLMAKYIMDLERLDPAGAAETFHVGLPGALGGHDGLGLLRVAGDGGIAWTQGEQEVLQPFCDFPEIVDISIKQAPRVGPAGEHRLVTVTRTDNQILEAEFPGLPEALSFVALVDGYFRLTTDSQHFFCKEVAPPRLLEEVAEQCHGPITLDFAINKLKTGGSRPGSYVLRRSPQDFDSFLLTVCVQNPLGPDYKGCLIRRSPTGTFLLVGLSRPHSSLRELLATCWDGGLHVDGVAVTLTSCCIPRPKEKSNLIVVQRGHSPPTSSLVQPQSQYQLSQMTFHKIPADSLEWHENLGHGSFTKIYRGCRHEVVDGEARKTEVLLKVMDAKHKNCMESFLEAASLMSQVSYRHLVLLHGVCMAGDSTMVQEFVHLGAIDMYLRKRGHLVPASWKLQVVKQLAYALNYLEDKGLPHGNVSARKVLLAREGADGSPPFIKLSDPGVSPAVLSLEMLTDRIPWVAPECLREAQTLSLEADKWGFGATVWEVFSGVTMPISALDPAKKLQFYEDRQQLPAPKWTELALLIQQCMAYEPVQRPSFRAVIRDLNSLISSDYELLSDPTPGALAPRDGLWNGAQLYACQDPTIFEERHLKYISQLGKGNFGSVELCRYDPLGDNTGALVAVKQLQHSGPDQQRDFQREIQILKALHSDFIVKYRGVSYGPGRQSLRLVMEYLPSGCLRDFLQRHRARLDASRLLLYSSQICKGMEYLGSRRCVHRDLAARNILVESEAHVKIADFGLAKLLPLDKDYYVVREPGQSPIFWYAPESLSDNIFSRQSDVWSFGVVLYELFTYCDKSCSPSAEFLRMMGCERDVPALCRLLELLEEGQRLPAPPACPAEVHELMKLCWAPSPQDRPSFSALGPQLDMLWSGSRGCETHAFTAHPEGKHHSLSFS

[8] = target: cAMP-dependent protein kinase catalytic subunit PRKX (Homo sapiens, UniProt P51817); format: functional
cAMP-dependent protein kinase catalytic subunit PRKX, sequence (P51817 whole entry): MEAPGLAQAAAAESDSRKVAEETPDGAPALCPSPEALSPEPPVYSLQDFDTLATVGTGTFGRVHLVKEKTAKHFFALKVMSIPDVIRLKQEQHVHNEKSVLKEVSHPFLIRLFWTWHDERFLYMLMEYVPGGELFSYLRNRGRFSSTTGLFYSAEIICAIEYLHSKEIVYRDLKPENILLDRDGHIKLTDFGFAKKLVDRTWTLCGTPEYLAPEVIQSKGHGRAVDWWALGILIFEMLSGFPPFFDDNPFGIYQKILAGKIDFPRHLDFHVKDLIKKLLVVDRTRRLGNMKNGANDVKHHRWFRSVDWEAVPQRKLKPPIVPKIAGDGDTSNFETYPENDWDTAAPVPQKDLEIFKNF

[9] = target: Mitogen-activated protein kinase kinase kinase kinase 4 (Homo sapiens, UniProt O95819); format: functional
[10] = target: Mitogen-activated protein kinase 9 (Homo sapiens, UniProt P45984); format: functional;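 note: value from a kinome panel profiling assay, MAPK9 panel entry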
Mitogen-activated protein kinase 9, sequence (P45984 whole entry): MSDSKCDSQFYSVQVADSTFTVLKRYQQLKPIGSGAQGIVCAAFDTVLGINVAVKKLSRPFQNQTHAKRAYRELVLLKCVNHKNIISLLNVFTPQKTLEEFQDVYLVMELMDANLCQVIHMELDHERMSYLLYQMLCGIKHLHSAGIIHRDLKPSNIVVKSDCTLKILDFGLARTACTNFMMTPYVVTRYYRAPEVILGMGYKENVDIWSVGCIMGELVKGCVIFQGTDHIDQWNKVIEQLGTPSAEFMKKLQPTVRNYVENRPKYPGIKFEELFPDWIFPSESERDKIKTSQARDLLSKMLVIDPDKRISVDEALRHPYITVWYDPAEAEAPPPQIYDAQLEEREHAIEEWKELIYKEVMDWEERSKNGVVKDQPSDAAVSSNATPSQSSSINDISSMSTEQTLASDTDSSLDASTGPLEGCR

[11] = target: Serine/threonine-protein kinase D3 (Homo sapiens, UniProt O94806); format: functional;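 note: determined within a kinase panel screen, with PRKCN as the panel member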
[12] = target: Calcium/calmodulin-dependent protein kinase type II subunit alpha (Homo sapiens, UniProt Q9UQM7); assay: Navigating the Kinome. Panel member name: CAMK2A; format: functional
Calcium/calmodulin-dependent protein kinase type II subunit alpha, sequence (Q9UQM7 whole entry): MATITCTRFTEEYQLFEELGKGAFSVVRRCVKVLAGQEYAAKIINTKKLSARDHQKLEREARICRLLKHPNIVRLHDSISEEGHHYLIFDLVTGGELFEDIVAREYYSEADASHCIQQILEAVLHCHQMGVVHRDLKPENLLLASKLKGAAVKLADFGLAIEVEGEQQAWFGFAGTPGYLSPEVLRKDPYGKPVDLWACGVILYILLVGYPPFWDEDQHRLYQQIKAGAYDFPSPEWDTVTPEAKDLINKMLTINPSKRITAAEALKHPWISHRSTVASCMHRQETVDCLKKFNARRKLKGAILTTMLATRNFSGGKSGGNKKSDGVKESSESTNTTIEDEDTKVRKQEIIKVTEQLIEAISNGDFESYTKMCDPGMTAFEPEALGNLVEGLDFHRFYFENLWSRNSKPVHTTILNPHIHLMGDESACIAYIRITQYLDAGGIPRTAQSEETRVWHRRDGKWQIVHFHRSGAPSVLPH

[13] = target: Glycogen synthase kinase-3 alpha (Homo sapiens, UniProt P49840); format: functional;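 note: GSK3A result taken from a broad kinome-wide kinase panel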
[14] = target: Dual specificity mitogen-activated protein kinase kinase 2 (Homo sapiens, UniProt P36507); assay: Navigating the Kinome. Panel member name: MAP2K2; format: functional
Dual specificity mitogen-activated protein kinase kinase 2, sequence (P36507 whole entry): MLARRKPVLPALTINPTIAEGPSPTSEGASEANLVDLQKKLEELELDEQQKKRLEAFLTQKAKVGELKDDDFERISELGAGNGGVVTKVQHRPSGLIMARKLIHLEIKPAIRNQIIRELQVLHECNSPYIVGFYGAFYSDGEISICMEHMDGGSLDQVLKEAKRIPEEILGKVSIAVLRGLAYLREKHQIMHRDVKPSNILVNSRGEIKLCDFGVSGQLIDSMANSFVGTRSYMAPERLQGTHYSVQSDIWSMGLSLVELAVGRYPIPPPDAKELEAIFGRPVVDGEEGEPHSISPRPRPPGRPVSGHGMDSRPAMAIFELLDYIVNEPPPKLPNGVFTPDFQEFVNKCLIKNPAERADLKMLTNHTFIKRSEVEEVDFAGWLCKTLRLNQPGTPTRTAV

| Compound | EC50 (Streptokinase A) | IC50 [1] | Ki [2] | Ki [3] | Ki [4] | Ki [5] | Ki [6] | Ki [7] | Ki [8] | Ki [9] | Ki [10] | Ki [11] | Ki [12] | Ki [13] | Ki [14] |
| --- | --- | --- | --- | --- | --- | --- | --- | --- | --- | --- | --- | --- | --- | --- | --- |
| CNC[C@H](Cc1ccccc1)NC[C@@H](Cc1cccc2ccccc12)NCCc1ccc(C)cc1 | > 150 µM (not active) |  |  |  |  |  |  |  |  |  |  |  |  |  |  |
| Nc1nnc2c(n1)CCCC2 |  | 7.37 µM (active) |  |  |  |  |  |  |  |  |  |  |  |  |  |
| O=C(N/N=C/c1c(O)ccc2ccccc12)c1[nH]ncc1Br |  | > 100 µM (inactive) |  |  |  |  |  |  |  |  |  |  |  |  |  |
| Nc1c(-c2ccc(NC(=O)Nc3cccc(C(F)(F)F)c3)cc2)cnc2c(-c3ccc4c(c3)OCO4)cnn12 |  |  | > 3.16 µM (inactive) | 0.0251 µM (active) | > 3.98 µM (inactive) | > 6.31 µM (inactive) | 0.316 µM (active) | > 5.01 µM (inactive) | > 3.16 µM (inactive) | > 5.01 µM (inactive) | > 3.98 µM (inactive) | > 3.98 µM (inactive) | > 3.98 µM (inactive) | > 3.98 µM (inactive) | > 3.98 µM (inactive) |
| O=C(Nc1cc(-c2c[nH]c3ncccc23)cc(Cl)n1)c1ccccc1 |  |  | > 3.16 µM (inactive) | 0.0794 µM (active) | > 3.98 µM (inactive) | > 3.98 µM (inactive) | > 6.31 µM (inactive) | > 5.01 µM (inactive) | > 3.16 µM (inactive) | 2.51 µM (active) | > 3.98 µM (inactive) | > 3.98 µM (inactive) | > 7.94 µM (inactive) | > 3.98 µM (inactive) | > 3.98 µM (inactive) |
| CCN1C(=Cc2sc3ccccc3[n+]2C)C=Cc2cccc(C)c21 | > 150 µM (not active) |  |  |  |  |  |  |  |  |  |  |  |  |  |  |

— ChEMBL document CHEMBL1201862, “PubChem BioAssay data set” (2004)
